Values joined by “and” are separate entries in the source; they are usually repeats but may differ in a detail not shown here. Equal entries are not always repeated. “Also recorded” adds a separate entry of the source. Marks after values point to notes of the source that are not given here.
How the values were obtained:
[1] = tested on: Haemophilus influenzae nontypeable bacterium strain adhering to Detroit 562 human pharynx carcinoma cells (DT 562); assay: Inhibition of adhesion of 111-In radiolabeled Haemophilus influenzae to DT 562 human pharynx cells; type: cell-based; conditions: for Activity in adhesion bioassay (in words): adhesion of H. influenzae to human pharynx cells
Text: To determine the ability of various phosphoinositides to prevent the adhesion of Haemophilus influenzae to human nasopharynx cells, the following procedure was used. Detroit 562 human pharynx carcinoma cells (DT 562) were obtained from the American Culture Type Collection. A Haemophilus influenzae nontypeable bacterium strain, which was isolated from the middle ear of an infected child, was obtained from Dr. Lauren Bakaletz of The Ohio State University in Columbus, Ohio.
The DT 562 cells were seeded into Costar 96 well plates at a density of 20,000 to 25,000 cells per well and were cultured in Dulbeco's modified Eagle Medium, available from Grand Island Biological Company. The cells were supplemented with 10% fetal bovine serum (FBS), available from Hyclone. The plates were incubated in a humidified atmosphere of 95% air and 5% carbon dioxide at 37° C. Plates containing cells were washed three times with 20 μL of Hanks Balanced Saline Solution (HBSS), available from Sigma Chemical Company of St. Louis, Mo., to remove serum proteins before the addition of bacteria in adhesion assays.
Haemophilus influenzae was streaked onto Chocolate agar plates, available from Becto Dickinson Diagnostic Instrument System of Sparks, Maryland, from frozen aliquots of a low passage number. The plates were then incubated at 37° C. in a humidified atmosphere of 95% air and 5% carbon dioxide for 18 hours to obtain logarithmically growing cultures. Bacteria harvested in phosphate buffered solution (PBS) supplemented with 0.05% bovine serum albumin (BSA), available from Miles Inc. of Kankakee, Ill., were centrifuged and resuspended in a volume of PBS/BSA yielding an optical density of 2.4 at a wavelength of 660 nm. ^111-Indium-oxine (^111-In), a high-energy, short-lived tracer was utilized to radiolabel the bacteria. Fifty μCi of ^111-In solution was added to 2.5 mL of the bacterial suspension and incubated for 20 minutes at 37° C. The radiolabeled bacteria were then washed two times with 10 mL HBSS to remove unbound ^111-In and resuspended in 5 mL HBSS supplemented with 30 mM 2-hydroxyethylpiperazine-N′-2-ethane sulfonic acid buffer, available from Life Technologies, a producer of Gibco BRL Products, of Grand Island, N.Y. Twenty-five μL of the ^111-In labeled bacterial suspension was preincubated with 25 μL of the test chemical in a polypropylene 96 well plate, available from Costar, for 15 minutes at 37° C. to allow binding of the test agent to the Haemophilus influenzae bacterium.
To determine the adhesion quantitation, the following procedure was used. Twenty-five μL of the preincubation mixture containing radiolabeled bacteria and the test chemical were pipetted into each well of the assay plate containing DT 562 cells. The assay plate was incubated for about 15 to about 20 minutes at 37° C. to allow adhesion of the bacteria to the cell monolayer. Nonadherent bacteria were removed by washing the plate three times in HBSS. The assay was terminated by the addition of 100 μL of 0.05 N sodium hydroxide to disrupt the cell monolayer and the adhering of the Haemophilus influenzae bacterium. The contents of each well were then placed in Cobra polypropylene tubes and counted on a Cobra Gamma Counter, available from Packard Bell. After background radiation was subtracted from each well, the average count of four replicates (per sample) was calculated. Results are presented in Table 1 as the percent of inhibition of bacterial adhesion, as compared to bacterial attachment, in control wells containing no test chemical and in which the percent of inhibition is zero.

[2] = tested on: nontypeable Haemophilus influenzae; assay: Neonatal rat model of nasopharyngeal colonisation by nontypeable Haemophilus influenzae; type: in vivo; conditions: for H.I. Recovered Log10 (CFU/mL): intranasal, nasal wash 24 hours after administration, 10 rat pups per group
Procedure: The attachment of Haemophilus influenzae to a mammal's nasopharynx area is believed to be the first stage of a bacterial infection which can lead to otitis media and other disorders and diseases caused by Haemophilus influenzae. A neonatal rat model was used to test the in vivo activity of phosphoinositides, and more specifically PI-3,4-PP, against nontypeable Haemophilus influenzae .
In the test, overnight cultures of nontypeable Haemophilus influenzae were prepared, washed twice and diluted with HBSS to obtain a bacterial suspension of less than 100,000 colony forming units (CFU) per mL. Sample solutions of the PI-3,4-PP were prepared by dissolving in HBSS at 2 mg/mL. The sample solution was mixed with an equal volume (0.5 mL) of the diluted bacterial suspension and incubated for one hour at 37° C. A bacterial control was prepared by mixing and incubating 0.5 mL HBSS with an equal volume of the diluted bacterial suspension. A solvent blank was prepared by incubating 1 mL of HBSS under the same conditions.
In the test, the experimental and control mixtures were used to inoculate 24-hour-old or younger rat pups at 10 μL each intranasally. Twenty-four hours after administration, samples of nasopharyngeal fluid were obtained by the slow instillation of 25 μL of HBSS into the left naris and the initial 10 μL discharge from the right naris was collected for plate count. This procedure insured that the fluid had passed through the nasopharynx. The nasal wash was then spread, or diluted and then spread, onto chocolate agar plates. The plates were incubated at 37° C. overnight and counted for the number of CFU's, an indicator of the number of viable bacteria.

[3] = Test Level 0.1 mg/mL, vs control wells without test chemical, average of four replicates

Compound	% Inhibition of bacterial adhesion [1, 3]	Activity in adhesion bioassay (in words) [1]	also measured
1-D-myo-inositol-1,2,6-triphosphate sodium salt [I-1,2,6-PPP, reference compound]	6* %	inactive	
1-D-myo-inositol-1,3,4-triphosphate sodium salt [I-1,3,4-PPP, reference compound]	−1%	inactive	
O=P([O-])(OCC(O)CO)OC1C(O)C(O)C(O)C(O)C1O.[Li+] [GPI, 1-(a-glycerophosphopoyl)-D-myo-insoitol lithium salt, reference compound]		inactive	% Inhibition of bacterial adhesion ([1]; Test Level 0.5 mg/mL): −3%
L-a-phosphatidylinositol ammonium salt [PI, reference compound]	−2%	inactive	
L-a-phosphatidylinositol-4-monophosphate sodium salt [PI-4-P]	24%	lower level of activity	
dipalmitoylphosphatidylinositol-3,4-diphosphate ammonium salt [PI-3,4-PP]		especially active	H.I. Recovered Log10 (CFU/mL) ([2]; Trial 1, inoculum dose 53 CFU/pup, 1 mg/mL PI-3,4-PP): 1.34 ± 0.58 Log10 (CFU/mL); Reduction in the number of bacteria recovered vs untreated group (HI+HBSS) ([2]; Trial 2, 1 mg/mL PI-3,4-PP, inoculum dose 630-720 CFU/pup): 0.6 log; H.I. Recovered Log10 (CFU/mL) ([2]; Trial 2, inoculum dose 630 CFU/pup, 1 mg/mL PI-3,4-PP): 2.54 ± 1.08 Log10 (CFU/mL); Mode of in vivo activity (in words) ([2]; neonatal rats, nasopharynx, ammonium salt): not bactericidal; also recorded: inhibits the attachment of nontypeable Haemophilus influenzae to nasopharyngeal cells of neonatal rats; % Inhibition of bacterial adhesion ([1]; Test Level 0.006 mg/mL): 31%; % Inhibition of bacterial adhesion ([1]; Test Level 0.013 mg/mL): 33%; % Inhibition of bacterial adhesion ([1]; Test Level 0.025 mg/mL): 58%; % Inhibition of bacterial adhesion ([1]; Test Level 0.050 mg/mL, ammonium salt): 80%; % Inhibition of bacterial adhesion ([1]; Test Level 0.050 mg/mL, listed as PI-3,4-P, ammonium salt): about 80%; % Inhibition of bacterial adhesion ([1]; Test Level 0.1 mg/mL, vs control wells without test chemical, average of four replicates, ammonium salt): 74% and 81%; Lowest concentration at which activity was exhibited ([1]; adhesion inhibition, dose response): 0.006 mg/mL
dipalmitoylphosphatidylinositol-3-phosphate ammonium salt [PI-3-P]	24%	lower level of activity	

From patent publication US6447797B2, “Antibacterial phosphoinositides” (Abbott Laboratories, priority 1998, dated 2002)
